# Test: gradient 5% acetonitrile 3 min, to 50% in 2 min, to 85% in 15 min, held 3 min, 100 µL/min
# Conditions: column: Zorbax Extend-C18 2.1 x 50 mm; eluents: water / acetonitrile, 0.1% formic acid
# Method in brief: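 Standards, all pure, were combined into mixtures of ~100 molecules and run at 100 μL/min on a Zorbax Extend-C18 column (2.1 × 50 mm, 1.8 μm) with water and acetonitrile, each containing 0.1% formic acid. A coupled quadrupole time-of-flight mass spectrometer operated in positive and negative ionization mode. Retention time values come from computationally picked adduct peaks, each inspected manually.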
row,SMILES,RP-LC retention time [s]
1,COc1ccc(-c2noc(C3CC(=O)N(c4ccccc4)C3)n2)c(OC)c1 (configuration not stated),803
2,Cc1cc(C)cc(NC(=O)C2CCCN2S(C)(=O)=O)c1 (configuration not stated),782
3,CCOC(=O)c1c(NC(=O)CN2CCN(CC)CC2)sc(C)c1C,596
4,COc1cc(NC(=O)c2nnn(-c3cc(OC)cc(OC)c3)c2C)cc(OC)c1,1050
5,COc1ccc(NC(=O)CSc2nccc(N3CCN(c4cc(C)ccc4C)CC3)n2)cc1OC,774
6,O=C(c1cn(-c2cc(N3CCSCC3)ncn2)cn1)N1CC=C(c2ccccc2)CC1,992
7,Cc1ccccc1CSc1ncnc2nc[nH]c12,744
8,Cc1cc(C)n(-c2ccnc(N3CCC(C(=O)NCCN4CCCC4)CC3)n2)n1,587
9,Cc1nc(-c2ccc3c(c2)n(CC(=O)NC2CCC(C)CC2)c(=O)n3C(C)C)no1 (configuration not stated),897
10,Cc1ccc2c(c1)N(c1ccc(N(C)C)cc1)C=C(C(=O)N1CCCC1)S2(=O)=O,874
11,CCNC(=O)N1CCC(c2noc(-c3cccnc3)n2)C1 (configuration not stated),605
12,CN(Cc1ccco1)C(=O)c1c2c(nc3ccccc13)C(=O)N(C1CCCCC1)C2,844
13,O=C(NCC1CCS(=O)(=O)C1)c1ccc2nsnc2c1 (configuration not stated),609
14,O=S(=O)(NCC1CCN(Cc2ccco2)CC1)c1ccc2c(c1)CCCC2,603
15,C=CCNc1ncnc2ccc(Br)cc12,671
16,NC(=O)C1CCN(C(=O)c2snc(-c3ccccn3)c2N)CC1,645
17,O=C(NCc1csc(C2CCN(C(=O)c3ccc(Cl)cc3)CC2)n1)C1CC1,725

row,SMILES,RP-LC retention time [s]
1,CN(Cc1ccco1)C(=O)c1ccc2ncnc(N3CCCCC3)c2c1,632
2,COc1cc(NC(=O)CN2CC(C)Sc3ccccc32)cc(OC)c1 (configuration not stated),971
3,Cc1ccc(-c2noc(C(=O)N3CCOCC3)n2)cc1S(=O)(=O)N1CCN(c2ncccn2)CC1,906
4,CCC(C)NC(=O)C1CCN(S(=O)(=O)c2c(C)nn(CC(=O)Nc3ccc(C)cc3)c2C)CC1 (configuration not stated),806
5,O=C(C1CCCCCC1)N1CCC2(CC1)CC(O)CCO2 (configuration not stated),681
6,CC1CCN(C(=O)CN2C(=O)CCCc3cc(S(=O)(=O)N4CCCCCC4)ccc32)CC1,956
7,Cc1[nH]nc(-c2c(C)sc(C)c2S(=O)(=O)NCCC2=CCCCC2)c1C,1210
8,Cc1cccc(NS(=O)(=O)c2cc3n(c2)CCCN(C)C3=O)c1C,711
9,O=c1n(Cc2cccc(Cl)c2)nc2ccc(S(=O)(=O)N3CCCCCC3)cn12,1040
10,COc1ccc(NC(=O)Cn2nc(N3CCOCC3)c3ccccc3c2=O)cc1,730
11,O=C(CSc1ncccc1C(=O)O)Nc1nc(-c2ccccc2)cs1,822
12,COc1ccc(S(=O)(=O)N2CCC(OCCOCc3ccccc3)CC2)cc1,1050
13,CCOC(=O)c1cc(S(=O)(=O)N2CCCC2C(=O)NC(C)(C)CC)cn1C (configuration not stated),931
14,COc1cccc(CNC(=O)C2CCc3nc(N4CCOCC4)ncc3C2)c1 (configuration not stated),660
15,CCOCCCNC(=O)N1CCC(c2noc(-c3cnccn3)n2)C1 (configuration not stated),614
16,Cc1cc(OCC(=O)Nc2ccc(C(C)C)cc2)nc(N2CCN(c3ccccc3)CC2)n1,981
17,CCOC(=O)c1c(C)c(CCC(=O)N2CCC(C)CC2)n(C)c1C,950

# The remaining lines, values ahead:
row,RP-LC retention time [s],SMILES
1,720,Cc1nnc(N2CCCC(C(=O)NCCc3cccs3)C2)c2nn(-c3ccccc3)c(C)c12 (configuration not stated)
2,932,Cc1ccc(-c2c(C)noc2C)cc1S(=O)(=O)Nc1ccccc1
3,807,CCc1ccc(C(=O)CC2(O)C(=O)Nc3c(C)cccc32)cc1 (configuration not stated)
4,764,COCCNS(=O)(=O)c1ccc(-c2c(C)noc2C)cc1
5,962,COc1ccc(Cn2c(=O)c3sccc3n(Cc3nc(-c4cccc(OC)c4)no3)c2=O)cc1
6,844,CCOc1ccc(NC(=O)CSC2=C(C#N)C(c3cccs3)CC(=O)N2)cc1 (configuration not stated)
7,987,Cc1ccc2[nH]cc(CCNC(=O)C3CCN(c4ccc(Cl)cc4)C3=O)c2c1 (configuration not stated)
8,699,CC(C)CCNC(=O)C1CC(=O)N(c2n[nH]c3cccc(F)c23)C1 (configuration not stated)
9,1260,O=C(Nc1nc(-c2ccccc2)cs1)c1sc2cc([N+](=O)[O-])ccc2c1Cl
10,940,Fc1ccc(-c2noc(-c3ccc(NCC4CCCO4)nc3)n2)cc1 (configuration not stated)
11,859,CCN1C(=O)COc2ccc(-c3noc(CNC(=O)Cc4ccc(Cl)cc4)n3)cc21
12,754,Cc1nnc(-c2ccc3ccn(CC(=O)NCCC(C)C)c3c2)o1
13,888,O=C(Cn1nc2c3cc(-c4ccc(F)cc4)nn3ccn2c1=O)Nc1ccc(F)cc1
14,695,CCOc1coc(C(=O)Nc2cccc(F)c2)cc1=O
15,648,CCCn1cc(C(=O)NCCN2CCc3ccccc3C2)c2cccnc21
16,652,Cc1nc2cc3c(cc2n1CC(=O)NCc1ccc(Cl)cc1)OCCO3
17,673,CCCN(C)c1nccn2c(=O)n(CC(=O)Nc3ccc(F)cc3F)nc12

row,RP-LC retention time [s],SMILES
1,790,Cc1ccc(Nc2c(-c3ccc(C(=O)O)cc3)nc3cnccn23)cc1Cl
2,700,COc1cccc(CNC(=O)C2CCN(Cc3cn(C)c4ccc(Cl)cc34)CC2)c1
3,605,COc1ccc(CCn2ccc3nc(N4CCN(C)CC4)ncc3c2=O)cc1OC
4,811,CC1(C)COCN1S(=O)(=O)c1ccc(C(=O)Nc2nnc(-c3ccc(F)cc3)o2)cc1
5,793,O=C(COc1ccc(F)cc1)N1C[C@@H]2C[C@H]1C[C@@H]2NS(=O)(=O)c1ccccc1
6,700,CCc1nccn1Cc1nc(-c2ccc(C(F)(F)F)cc2)no1
7,936,CSc1ccc(CCNC(=O)C2CCCN(C(=O)c3cc(C)cc(C)c3)C2)cc1 (configuration not stated)
8,687,COc1ccc(CN(Cc2ccccc2)Cc2cc(=O)n3cc(Cl)ccc3n2)cc1OC
9,863,CCCNC(=O)c1c(C)sc2ccn(Cc3ccc(F)cc3)c(=O)c12
10,822,O=C(NCc1ccco1)c1cc2c(=O)n(Cc3ccccc3)ccc2s1
11,805,O=C(CCCNC(=O)c1cc(-c2ccco2)on1)Nc1cccc2cccnc12
12,678,Cc1ccc(F)c(NS(=O)(=O)c2cc(-c3[nH]ncc3C(=O)N3CCOCC3)oc2C)c1
13,690,CC(C)OCCCNC(=O)C1CC(=O)N(c2n[nH]c3cc(Br)ccc23)C1 (configuration not stated)
14,785,O=C1CCCc2c1cc(C(=O)Nc1ccc(F)cc1F)c(=O)n2-c1ccc(F)cc1
15,886,CCc1nn2c(CNS(=O)(=O)c3ccc(OC)cc3)c(-c3ccccc3)nc2s1
16,750,COc1ccc(CN2CN=C(Nc3nc(C)c4cccc(OC)c4n3)NC2)cc1
